Experimental data as given in article PMC4745926, “Absorption, Metabolism, and Excretion by Freely Moving Rats of 3,4-DHPEA-EDA and Related Polyphenols from Olive Fruits (Olea europaea)” (Journal of Nutrition and Metabolism, 2016).
Several values for one entry are separate records, joined by “and”; a condition that tells them apart may be missing. Equal entries are not always repeated. Entries after “also recorded” stand apart in the source; their conditions may differ.

Legend:
[1] = Biliary excretion after intravenous administration in bile duct-cannulated rats; type: in vivo, Wistar ST rats
Description: (§1) SPF Wistar ST rats (6 weeks of age, male, 180 ± 20 g of body weight) were purchased from Japan SLC Inc. (Hamamatsu, Japan). The rats were housed in an air-conditioned room at 22 ± 2°C under cycles of 12 hours dark and 12 hours light and given free access to a commercial diet and water for a week. The rats were then fasted for over 16 hours before the experiments. The present study was approved by the Animal Care and Use Committee at Kagawa University, and the rat treatment conformed to the Rules of Animal Experiments at Kagawa University. After fasting, the rats were cannulated with a polyethylene tube (PE-50; 0.58 mm I.D., 0.965 mm O.D.) into the jugular vein, portal vein, or bile duct under anesthesia with isoflurane inhalation using a WP-SAA01 (LMS Co., Ltd., Tokyo, Japan). A small hole was made in the vein or duct using pointed scissors and cannulated with the polyethylene tube. After inserting the tube, it was fixed at the edge of the vein or duct. The jugular vein and portal vein cannulas penetrated under the skin and were then tied at the back of the rats, and the bile duct cannula was tied at the abdomen of the rats. Bile duct-cannulated rats were then restrained in a Bollman cage (Natsume Seisakusho Co., Ltd., Tokyo, Japan). Before further experiments, the rats were allowed to recover from anesthesia. 3,4-[…] (300 mg/kg body weight; 936.51 μmol/kg) dissolved in 50% polyethylene glycol aqueous solution was administered orally via a stomach tube to the portal vein cannulated rats. Blood samples (450 μL) were then collected using a heparinized syringe attached to the cannula before administration and 5, 15, 30, 60, 120, and 240 min after administration. Urine was also collected before administration and 0 to 2 h and 2 to 4 h after administration. For intravenous administration, 3,4-[…] (10 mg/kg; 31.22 μmol/kg) was injected into the jugular vein, and blood (450 μL) was collected using a heparinized syringe before administration and 5, 15, 30, 60, 120, and 240 min after administration via the jugular vein cannula. The blood (450 μL) collected was immediately cooled on ice and centrifuged at 15,000 rpm for 5 min at 4°C to obtain over 200 μL plasma. Urine was also collected before administration and 0 to 2 h and 2 to 4 h after administration. Bile was collected via the bile duct cannula before administration and 0 to 2 h and 2 to 4 h after intravenous administration. The collected plasma, urine, and bile were immediately stored in an ice box until further analyses. HT (oral administration: 100 mg/kg; 648.66 μmol/kg, intravenous administration: 10 mg/kg; 64.87 μmol/kg) and Ole (oral administration: 300 mg/kg; 555.02 μmol/kg, intravenous administration: 10 mg/kg; 18.50 μmol/kg) were investigated using the same method as described above. Metabolites were deconjugated by using β-glucuronidase (500 U) and sulfatase (50 U) in 50 μL 625 mM MOPS (pH 6.8), which was added to 200 μL of plasma, urine, or bile. The mixture was incubated for 45 min at 37°C and subjected to extraction using QuEChERS [33]. […] Shimadzu, Kyoto, Japan) equipped with a Shim-pack XR-ODS column (3.0 mm I.D. × 100 mm; Shimadzu, Kyoto, Japan) at 40°C with a mobile phase of 0.5% TFA-1% acetonitrile aqueous solution (A) and 0.5% TFA-75% acetonitrile aqueous solution (B). The elution conditions are described as follows: isocratic elution of 0% B was maintained for 4.0 min; linear gradient 0 to 4% B, 4.0-4.5 min; linear gradient 4.0-16.0% B, 4.5-16.0 min; linear gradient 16.0-100% B, 16.0-25.0 min; isocratic elution of 100% B, 25.0-26.0 min; and linear gradient 100 to 0% B, 26.0-26.1 min, with a flow rate of 0.5 mL/min. Injection volume was 50 μL. All eluted peaks were detected at 279 nm with a diode array detector (SPD-M20A; Shimadzu, Kyoto, Japan).

[2] = Urinary excretion after intravenous administration; type: in vivo, Wistar ST rats
Description: as §1, with “University.” for “University. After fasting, the rats were cannulated with a polyethylene tube (PE-50; 0.58 mm I.D., 0.965 mm O.D.) into the jugular vein, portal vein, or bile duct under anesthesia with isoflurane inhalation using a WP-SAA01 (LMS Co., Ltd., Tokyo, Japan). A small hole was made in the vein or duct using pointed scissors and cannulated with the polyethylene tube. After inserting the tube, it was fixed at the edge of the vein or duct. The jugular vein and portal vein cannulas penetrated under the skin and were then tied at the back of the rats, and the bile duct cannula was tied at the abdomen of the rats. Bile duct-cannulated rats were then restrained in a Bollman cage (Natsume Seisakusho Co., Ltd., Tokyo, Japan). Before further experiments, the rats were allowed to recover from anesthesia.”

## CC=C(C=O)C(CC=O)CC(=O)OCCc1ccc(O)c(O)c1 (stereo not drawn) [3,4-DHPEA-EDA, 3,4-dihydroxyphenylethyl elenolate dialdehydic form]
[1]
  Detection of parent 3,4-DHPEA-EDA in bile: not observed
  HT in bile: 0.174 % of dose and 0.17 % of dose
  HVA in bile: 0.048 % of dose and 0.05 % of dose
  HVAOH in bile: 0.255 % of dose and 0.26 % of dose
[2]
  Detection of intact 3,4-DHPEA-EDA in urine: not observed; also recorded: not detected
  HT in urine: 6.3 % of dose
  HVA in urine: 2.6 % of dose
  HVAOH in urine: 4.6 % of dose
  Total metabolites observed in the urine: 13%

## OCCc1ccc(O)c(O)c1 [Hydroxytyrosol, 2-(3,4-dihydroxyphenyl) ethyl alcohol, reference compound]
[1]
  HT in bile: 0.079 % of dose

## C/C=C1/[C@H](O[C@@H]2O[C@H](CO)[C@@H](O)[C@H](O)[C@H]2O)OC=C(C(=O)OC)[C@H]1CC(=O)OCCc1ccc(O)c(O)c1 [Oleuropein, reference compound]
[1]
  Ole in bile: 3.22 % of dose
[2]; listed as Ole
  Detection of intact Ole and metabolites in urine: not detected at all
